# Counter-ions that a name gives are not always drawn.
# How the values were obtained:
# Experiment in all cases: cells
# COLO-824 = format: functional, cell-based, Homo sapiens
# Description: SANGER: Inhibition of human COLO-824 cell growth in a cell viability assay.
# COR-L88 = format: functional, cell-based, Homo sapiens;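 further: growth inhibition of COR-L88 cells, read out with a cell viability assay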
# Description: SANGER: Inhibition of human COR-L88 cell growth in a cell viability assay.
# CTB-1 = format: functional, cell-based, Homo sapiens
# Description: SANGER: Inhibition of human CTB-1 cell growth in a cell viability assay.
# D-392MG = format: functional, cell-based, Homo sapiens
# DMS-114 = format: functional, cell-based, Homo sapiens
# EW-11 = format: functional, cell-based, Homo sapiens;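 further: growth inhibition of human EW-11 cells, measured with a cell viability assay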
# Description: SANGER: Inhibition of human EW-11 cell growth in a cell viability assay.
# EW-24 = format: functional, cell-based, Homo sapiens;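 further: human EW-24 cancer cell line, growth inhibition read out via a cell viability assay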
# Description: SANGER: Inhibition of human EW-24 cell growth in a cell viability assay.
# HCC2157 = format: functional, cell-based, Homo sapiens;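 further: growth inhibition of the cancer cell line, read out as cell viability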
# Description: SANGER: Inhibition of human HCC2157 cell growth in a cell viability assay.
# HOP-62 = format: functional, cell-based, Homo sapiens;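 further: cell growth inhibition determined with a viability assay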
# Description: SANGER: Inhibition of human HOP-62 cell growth in a cell viability assay.
# IST-MES1 = format: functional, cell-based, Homo sapiens;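 further: growth inhibition of IST-MES1 cells, measured with a cell viability assay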
# Description: SANGER: Inhibition of human IST-MES1 cell growth in a cell viability assay.
# KARPAS-299 = format: functional, cell-based, Homo sapiens
# Description: SANGER: Inhibition of human KARPAS-299 cell growth in a cell viability assay.
# KARPAS-45 = format: functional, cell-based, Homo sapiens;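 further: inhibition of cell line growth, read out through a viability assay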
# Description: SANGER: Inhibition of human KARPAS-45 cell growth in a cell viability assay.
# KMOE-2 = format: functional, cell-based, Homo sapiens;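 further: growth inhibition of human KMOE-2 cells, read out with a cell viability assay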
# Description: SANGER: Inhibition of human KMOE-2 cell growth in a cell viability assay.
# LAMA-84 = format: functional, cell-based, Homo sapiens;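 further: growth inhibition of LAMA-84 cells, read out with a cell viability assay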
# Description: SANGER: Inhibition of human LAMA-84 cell growth in a cell viability assay.
# MEG-01 = format: functional, cell-based, Homo sapiens;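 further: growth inhibition of MEG-01 cells, read out by a cell viability assay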
# Description: SANGER: Inhibition of human MEG-01 cell growth in a cell viability assay.
# MFH-ino = format: functional, cell-based, Homo sapiens;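 further: growth inhibition of human MFH-ino cells, read out by a cell viability assay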
# Description: SANGER: Inhibition of human MFH-ino cell growth in a cell viability assay.
# MHH-NB-11 = format: functional, cell-based, Homo sapiens;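 further: growth inhibition of human MHH-NB-11 cells, read out by a cell viability assay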
# Description: SANGER: Inhibition of human MHH-NB-11 cell growth in a cell viability assay.
# MN-60 = format: functional, cell-based, Homo sapiens;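 further: growth inhibition of the MN-60 cell line, determined with a cell viability assay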
# Description: SANGER: Inhibition of human MN-60 cell growth in a cell viability assay.
# MPP-89 = format: functional, cell-based, Homo sapiens;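 further: growth inhibition of human MPP-89 cells, read out with a cell viability assay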
# Description: SANGER: Inhibition of human MPP-89 cell growth in a cell viability assay.
# MSTO-211H = format: functional, cell-based, Homo sapiens
# Description: SANGER: Inhibition of human MSTO-211H cell growth in a cell viability assay.
# MZ1-PC = format: functional, cell-based, Homo sapiens;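 further: cell viability assay measuring growth inhibition of human MZ1-PC cells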
# Description: SANGER: Inhibition of human MZ1-PC cell growth in a cell viability assay.
# NCI-H1355 = format: functional, cell-based, Homo sapiens;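 further: growth inhibition of human NCI-H1355 cells, read out by a cell viability assay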
# Description: SANGER: Inhibition of human NCI-H1355 cell growth in a cell viability assay.
# NCI-H1395 = format: functional, cell-based, Homo sapiens;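 further: cell viability assay read-out quantifying reduced proliferation of human NCI-H1395 cells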
# Description: SANGER: Inhibition of human NCI-H1395 cell growth in a cell viability assay.
# NCI-H2126 = format: functional, cell-based, Homo sapiens;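 further: growth inhibition of the cancer cell line, determined with a cell viability readout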
# Description: SANGER: Inhibition of human NCI-H2126 cell growth in a cell viability assay.
# NCI-H747 = format: functional, cell-based, Homo sapiens;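 further: growth inhibition of human NCI-H747 cells, read out by a cell viability assay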
# Description: SANGER: Inhibition of human NCI-H747 cell growth in a cell viability assay.
# NCI-N87 = format: functional, cell-based, Homo sapiens;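 further: growth inhibition of human NCI-N87 cells, read out with a cell viability assay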
# Description: SANGER: Inhibition of human NCI-N87 cell growth in a cell viability assay.
# NH-12 = format: functional, cell-based, Homo sapiens;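 further: growth inhibition of NH-12 cells, read out with a cell viability assay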
# Description: SANGER: Inhibition of human NH-12 cell growth in a cell viability assay.
# NOMO-1 = format: functional, cell-based, Homo sapiens;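 further: growth inhibition of human NOMO-1 cells measured by a cell viability assay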
# Description: SANGER: Inhibition of human NOMO-1 cell growth in a cell viability assay.
# OS-RC-2 = format: functional, cell-based, Homo sapiens;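 further: growth inhibition of human OS-RC-2 cells, measured by a cell viability assay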
# Description: SANGER: Inhibition of human OS-RC-2 cell growth in a cell viability assay.
# P30-OHK = format: functional, cell-based, Homo sapiens;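 further: growth inhibition of the P30-OHK cell line, read out with a cell viability assay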
# Description: SANGER: Inhibition of human P30-OHK cell growth in a cell viability assay.
# QIMR-WIL = format: functional, cell-based, Homo sapiens;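 further: growth inhibition of QIMR-WIL cells, read out with a cell viability assay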
# Description: SANGER: Inhibition of human QIMR-WIL cell growth in a cell viability assay.
# RS4-11 = format: functional, cell-based, Homo sapiens;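 further: growth inhibition of RS4-11 cells, read out by a cell viability assay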
# Description: SANGER: Inhibition of human RS4-11 cell growth in a cell viability assay.
# SBC-1 = format: functional, cell-based, Homo sapiens;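 further: cell viability assay measuring growth inhibition of the SBC-1 cell line, IC50 being the concentration that halves growth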
# Description: SANGER: Inhibition of human SBC-1 cell growth in a cell viability assay.
# SK-MEL-1 = format: functional, cell-based, Homo sapiens;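 further: growth inhibition of human SK-MEL-1 cells, read out by a cell viability assay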
# Description: SANGER: Inhibition of human SK-MEL-1 cell growth in a cell viability assay.
# SK-N-FI = format: functional, cell-based, Homo sapiens;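 further: cell viability assay measuring growth inhibition of human SK-N-FI cells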
# Description: SANGER: Inhibition of human SK-N-FI cell growth in a cell viability assay.
# SK-PN-DW = format: functional, cell-based, Homo sapiens;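 further: growth inhibition measured with a viability assay on these cells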
# Description: SANGER: Inhibition of human SK-PN-DW cell growth in a cell viability assay.
# 8-MG-BA = format: functional, cell-based, Homo sapiens;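 further: growth inhibition of 8-MG-BA cells, read out with a cell viability assay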
# Description: SANGER: Inhibition of human 8-MG-BA cell growth in a cell viability assay.
# A704 = format: functional, cell-based, Homo sapiens;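 further: growth inhibition of human A704 cells, read out with a cell viability assay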
# Description: SANGER: Inhibition of human A704 cell growth in a cell viability assay.
# BB49-HNC = format: functional, cell-based, Homo sapiens;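 further: cell viability assay read-out, reported as inhibition of BB49-HNC cell growth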
# Description: SANGER: Inhibition of human BB49-HNC cell growth in a cell viability assay.
# BB65-RCC = format: functional, cell-based, Homo sapiens;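 further: growth inhibition of the cell line, measured with a cell viability assay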
# Description: SANGER: Inhibition of human BB65-RCC cell growth in a cell viability assay.
# BE-13 = format: functional, cell-based, Homo sapiens;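 further: growth inhibition of human BE-13 cells, measured with a cell viability assay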
# Description: SANGER: Inhibition of human BE-13 cell growth in a cell viability assay.
# BT-474 = format: functional, cell-based, Homo sapiens
# Description: SANGER: Inhibition of human BT-474 cell growth in a cell viability assay.
# C2BBe1 = format: functional, cell-based, Homo sapiens;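 further: growth inhibition of C2BBe1 cells, read out through a viability assay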
# Description: SANGER: Inhibition of human C2BBe1 cell growth in a cell viability assay.
# TE-12 = format: functional, cell-based, Homo sapiens;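 further: growth inhibition of TE-12 cells, read out by a cell viability assay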
# Description: SANGER: Inhibition of human TE-12 cell growth in a cell viability assay.
# TE-5 = format: functional, cell-based, Homo sapiens;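 further: inhibition of cell growth, read out by a cell viability assay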
# Description: SANGER: Inhibition of human TE-5 cell growth in a cell viability assay.
# U-87 MG = format: functional, cell-based, Homo sapiens, U-87MG ATCC;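 further: growth inhibition of the cells measured with a viability assay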
# Description: SANGER: Inhibition of human U-87-MG cell growth in a cell viability assay.
# VA-ES-BJ = format: functional, cell-based, Homo sapiens;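 further: growth inhibition of the VA-ES-BJ cell line, read out by a cell viability assay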
# Description: SANGER: Inhibition of human VA-ES-BJ cell growth in a cell viability assay.
# no-10 = format: functional, cell-based, Homo sapiens;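 further: growth inhibition of no-10 cells, read out with a cell viability assay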
# Description: SANGER: Inhibition of human no-10 cell growth in a cell viability assay.
molecule,measurement,setting,value
O=C(O)c1ccc(-c2c[nH]c3ncc(-c4ccccc4)cc23)cc1C1CCCC1 [GSK-650394],IC50,"COLO-824; Homo sapiens, COLO-824",> 16 µM
same,IC50,"COR-L88; Homo sapiens, COR-L88",> 16 µM
same,IC50,"CTB-1; Homo sapiens, CTB-1",> 16 µM
same,IC50,"D-392MG; Homo sapiens, D-392MG",> 16 µM
same,IC50,"DMS-114; Homo sapiens, DMS-114",> 16 µM
same,IC50,"EW-11; Homo sapiens, EW-11",> 16 µM
same,IC50,"EW-24; Homo sapiens, EW-24",> 16 µM
same,IC50,"HCC2157; Homo sapiens, HCC2157",13.5 µM
same,IC50,"HOP-62; Homo sapiens, HOP-62",> 16 µM
same,IC50,"IST-MES1; Homo sapiens, IST-MES1",> 16 µM
same,IC50,"KARPAS-299; Homo sapiens, KARPAS-299",> 16 µM
same,IC50,"KARPAS-45; Homo sapiens, KARPAS-45",> 16 µM
same,IC50,"KMOE-2; Homo sapiens, KMOE-2",> 16 µM
same,IC50,"LAMA-84; Homo sapiens, LAMA-84",10.2 µM
same,IC50,"MEG-01; Homo sapiens, MEG-01",5.26 µM
same,IC50,"MFH-ino; Homo sapiens, MFH-ino",1.99 µM
same,IC50,"MHH-NB-11; Homo sapiens, MHH-NB-11",> 16 µM
same,IC50,"MN-60; Homo sapiens, MN-60",> 16 µM
same,IC50,"MPP-89; Homo sapiens, MPP-89",9.27 µM
same,IC50,"MSTO-211H; Homo sapiens, MSTO-211H",> 16 µM
same,IC50,"MZ1-PC; Homo sapiens, MZ1-PC",> 16 µM
same,IC50,"NCI-H1355; Homo sapiens, NCI-H1355",> 16 µM
same,IC50,"NCI-H1395; Homo sapiens, NCI-H1395",> 16 µM
same,IC50,"NCI-H2126; Homo sapiens, NCI-H2126",> 16 µM
same,IC50,"NCI-H747; Homo sapiens, NCI-H747",> 16 µM
same,IC50,"NCI-N87; Homo sapiens, NCI-N87",> 16 µM
same,IC50,"NH-12; Homo sapiens, NH-12",12.3 µM
same,IC50,"NOMO-1; Homo sapiens, NOMO-1",> 16 µM
same,IC50,"OS-RC-2; Homo sapiens, OS-RC-2",> 16 µM
same,IC50,"P30-OHK; Homo sapiens, P30-OHK",6.21 µM
same,IC50,"QIMR-WIL; Homo sapiens, QIMR-WIL",8.8 µM
same,IC50,"RS4-11; Homo sapiens, RS4-11",8.96 µM
same,IC50,"SBC-1; Homo sapiens, SBC-1",> 16 µM
same,IC50,"SK-MEL-1; Homo sapiens, SK-MEL-1",> 16 µM
same,IC50,"SK-N-FI; Homo sapiens, SK-N-FI",> 16 µM
same,IC50,"SK-PN-DW; Homo sapiens, SK-PN-DW",14.2 µM
same,IC50,"8-MG-BA; Homo sapiens, 8-MG-BA",15.6 µM
same,IC50,"A704; Homo sapiens, A704",> 16 µM
same,IC50,"BB49-HNC; Homo sapiens, BB49-HNC",> 16 µM
same,IC50,"BB65-RCC; Homo sapiens, BB65-RCC",> 16 µM
same,IC50,"BE-13; Homo sapiens, BE-13",> 16 µM
same,IC50,"BT-474; Homo sapiens, BT-474",> 16 µM
same,IC50,"C2BBe1; Homo sapiens, C2BBe1",> 16 µM
same,IC50,"TE-12; Homo sapiens, TE-12",1.99 µM
same,IC50,"TE-5; Homo sapiens, TE-5",> 16 µM
same,IC50,"U-87 MG; Homo sapiens, U-87 MG",> 16 µM
same,IC50,"VA-ES-BJ; Homo sapiens, VA-ES-BJ",9.04 µM
same,IC50,no-10; Homo sapiens,> 16 µM
COC1=CC(c2cc3ccccc3[nH]2)=N/C1=C\c1[nH]c(C)cc1C [OBATOCLAX MESYLATE],IC50,"COLO-824; Homo sapiens, COLO-824",0.678 µM
same,IC50,"COR-L88; Homo sapiens, COR-L88",> 16 µM
same,IC50,"CTB-1; Homo sapiens, CTB-1",0.0759 µM
same,IC50,"D-392MG; Homo sapiens, D-392MG",1.6 µM
same,IC50,"DMS-114; Homo sapiens, DMS-114",1.27 µM
same,IC50,"EW-11; Homo sapiens, EW-11",5.18 µM
same,IC50,"EW-24; Homo sapiens, EW-24",0.34 µM
same,IC50,"HCC2157; Homo sapiens, HCC2157",1.14 µM
same,IC50,"HOP-62; Homo sapiens, HOP-62",0.0825 µM
same,IC50,"IST-MES1; Homo sapiens, IST-MES1",0.286 µM
same,IC50,"KARPAS-299; Homo sapiens, KARPAS-299",> 16 µM
same,IC50,"KARPAS-45; Homo sapiens, KARPAS-45",< 0.0625 µM
same,IC50,"KMOE-2; Homo sapiens, KMOE-2",0.0904 µM
same,IC50,"LAMA-84; Homo sapiens, LAMA-84",2.57 µM
same,IC50,"MEG-01; Homo sapiens, MEG-01",0.454 µM
same,IC50,"MFH-ino; Homo sapiens, MFH-ino",0.247 µM
same,IC50,"MHH-NB-11; Homo sapiens, MHH-NB-11",3.44 µM
same,IC50,"MN-60; Homo sapiens, MN-60",0.099 µM
same,IC50,"MPP-89; Homo sapiens, MPP-89",0.463 µM
same,IC50,"MSTO-211H; Homo sapiens, MSTO-211H",4.84 µM
same,IC50,"MZ1-PC; Homo sapiens, MZ1-PC",0.108 µM
same,IC50,"NCI-H1355; Homo sapiens, NCI-H1355",0.153 µM
same,IC50,"NCI-H1395; Homo sapiens, NCI-H1395",> 16 µM
same,IC50,"NCI-H2126; Homo sapiens, NCI-H2126",2.23 µM
same,IC50,"NCI-H747; Homo sapiens, NCI-H747",0.143 µM
same,IC50,"NCI-N87; Homo sapiens, NCI-N87",4.39 µM
same,IC50,"NH-12; Homo sapiens, NH-12",0.54 µM
same,IC50,"NOMO-1; Homo sapiens, NOMO-1",0.564 µM
same,IC50,"OS-RC-2; Homo sapiens, OS-RC-2",0.431 µM
same,IC50,"P30-OHK; Homo sapiens, P30-OHK",0.24 µM
same,IC50,"QIMR-WIL; Homo sapiens, QIMR-WIL",0.132 µM
same,IC50,"RS4-11; Homo sapiens, RS4-11",0.085 µM
same,IC50,"SBC-1; Homo sapiens, SBC-1",3.09 µM
same,IC50,"SK-MEL-1; Homo sapiens, SK-MEL-1",> 16 µM
same,IC50,"SK-N-FI; Homo sapiens, SK-N-FI",14.9 µM
same,IC50,"SK-PN-DW; Homo sapiens, SK-PN-DW",0.0573 µM
same,IC50,"8-MG-BA; Homo sapiens, 8-MG-BA",0.078 µM
same,IC50,"A704; Homo sapiens, A704",0.0915 µM
same,IC50,"BB49-HNC; Homo sapiens, BB49-HNC",1.34 µM
same,IC50,"BB65-RCC; Homo sapiens, BB65-RCC",0.175 µM
same,IC50,"BE-13; Homo sapiens, BE-13",0.129 µM
same,IC50,"BT-474; Homo sapiens, BT-474",0.175 µM
same,IC50,"C2BBe1; Homo sapiens, C2BBe1",2.42 µM
same,IC50,"TE-12; Homo sapiens, TE-12",0.333 µM
same,IC50,"TE-5; Homo sapiens, TE-5",0.483 µM
same,IC50,"U-87 MG; Homo sapiens, U-87 MG",2.29 µM
same,IC50,"VA-ES-BJ; Homo sapiens, VA-ES-BJ",0.7 µM
same,IC50,no-10; Homo sapiens,1.46 µM
BLEOMYCIN,IC50,COLO-824; colo-824,53.3 µM
same,IC50,COR-L88; cor-l88,73.4 µM
same,IC50,CTB-1; ctb-1,0.0269 µM
same,IC50,D-392MG; d-392mg,13.6 µM
same,IC50,DMS-114; dms-114,6.79 µM
same,IC50,EW-11; ew-11,6.41 µM
same,IC50,EW-24; ew-24,95.3 µM
same,IC50,HCC2157; hcc2157,93.4 µM
same,IC50,HOP-62; hop-62,0.00413 µM
same,IC50,IST-MES1; ist-mes1,206 µM
same,IC50,KARPAS-299; karpas-299,27.2 µM
same,IC50,KARPAS-45; karpas-45,213 µM
same,IC50,KMOE-2; kmoe-2,544 µM
same,IC50,LAMA-84; lama-84,4.29 µM
same,IC50,MEG-01; meg-01,0.395 µM
same,IC50,MFH-ino; mfh-ino,0.00265 µM
same,IC50,MHH-NB-11; mhh-nb-11,2.01 µM
same,IC50,MN-60; mn-60,4.05 µM
same,IC50,MPP-89; mpp-89,39.9 µM
same,IC50,MSTO-211H; msto-211h,149 µM
same,IC50,MZ1-PC; mz1-pc,0.224 µM
same,IC50,NCI-H1355; nci-h1355,8.2 µM
same,IC50,NCI-H1395; nci-h1395,384 µM
same,IC50,NCI-H2126; nci-h2126,358 µM
same,IC50,NCI-H747; nci-h747,1.21 µM
same,IC50,NCI-N87; nci-n87,2.96 µM
same,IC50,NH-12; nh-12,2.21 µM
same,IC50,NOMO-1; nomo-1,4.2 µM
same,IC50,OS-RC-2; os-rc-2,3.02 µM
same,IC50,P30-OHK; p30-ohk,7.1 µM
same,IC50,QIMR-WIL; qimr-wil,0.637 µM
same,IC50,RS4-11; rs4-11,0.00164 µM
same,IC50,SBC-1; sbc-1,370 µM
same,IC50,SK-MEL-1; sk-mel-1,260 µM
same,IC50,SK-N-FI; sk-n-fi,2100 µM
same,IC50,SK-PN-DW; sk-pn-dw,1.45 µM
same,IC50,8-MG-BA; 8-mg-ba,1.48 µM
same,IC50,A704; a704,10.6 µM
same,IC50,BB49-HNC; bb49-hnc,38.8 µM
same,IC50,BB65-RCC; bb65-rcc,21.4 µM
same,IC50,BE-13; be-13,0.399 µM
same,IC50,BT-474; bt-474,2080 µM
same,IC50,C2BBe1; c2bbe1,91.8 µM
same,IC50,TE-12; te-12,0.719 µM
same,IC50,TE-5; te-5,7.96 µM
same,IC50,U-87 MG; u-87mg atcc,11.1 µM
same,IC50,VA-ES-BJ; va-es-bj,0.26 µM
same,IC50,no-10,27.1 µM

# Reference: ChEMBL document CHEMBL1201861, “Genomics of Drug Sensitity in Cancer screening data, Wellcome Trust Sanger Institute”
